Where “and” joins values, the source holds several entries; their conditions need not be identical. Equal values may be shown once.
Assay: safety assessments (adverse events, NCI CTCAE)
[1] = Grade 3/4 hematologic TRAE, all 165 patients
[2] = TRAE G 3/4, Accelerated phase CML n=38
[3] = TRAE G 3/4, Chronic phase CML n=127
[4] = TRAE any grades, Accelerated phase CML n=38
[5] = TRAE any grades, Chronic phase CML n=127

Protocol: Adverse events were assessed continuously and graded according to NCI CTCAE v5.0.18. Complete blood count with differential, serum chemistries, and physical examinations were performed before the study; weekly during Cycles 1 and 2; on alternate weeks in Cycles 3 and 4; and monthly thereafter.

SMILES: Cc1ccc(C(=O)Nc2ccc(CN3CCN(C)CC3)c(C(F)(F)F)c2)cc1C#Cc1cnc2[nH]ncc2c1 [olverembatinib]
- Anemia [1]: 23.0%
- Neutropenia [1]: 11.5%
- Thrombocytopenia [1]: 51.5%
- Anemia [2]: 12 (31.6) n (%)
- Arthralgia [2]: 1 (2.6) n (%)
- Asthenia [2]: 0 n (%)
- Hematologic [2]: 26 (68.4) n (%)
- Hyperbilirubinemia [2]: 1 (2.6) n (%)
- Hyperglycemia [2]: 0 n (%)
- Hypertriglyceridemia [2]: 1 (2.6) n (%)
- Hypoalbuminemia [2]: 0 n (%)
- Hypocalcemia [2]: 0 n (%)
- Hypokalemia [2]: 1 (2.6) n (%)
- Hyponatremia [2]: 0 n (%)
- Increased alanine aminotransferase [2]: 1 (2.6) n (%)
- Increased alkaline phosphatase [2]: 0 n (%)
- Increased aspartate aminotransferase [2]: 2 (5.3) n (%)
- Increased creatine phosphokinase [2]: 1 (2.6) n (%)
- Increased γ-glutamyl transferase [2]: 0 n (%)
- Leukopenia [2]: 13 (34.2) n (%)
- Myalgia [2]: 0 n (%)
- Neutropenia [2]: 8 (21.1) n (%)
- Nonhematologic [2]: 20 (52.6) n (%)
- Pain in extremity [2]: 1 (2.6) n (%)
- Proteinuria [2]: 1 (2.6) n (%)
- Pyrexia [2]: 4 (10.5) n (%)
- Rash [2]: 0 n (%)
- Sinus tachycardia [2]: 0 n (%)
- Skin pigmentation [2]: 0 n (%)
- Thrombocytopenia [2]: 23 (60.5) n (%)
- Treatment-related adverse events [2]: 34 (89.5) n (%)
- Anemia [3]: 26 (20.5) n (%)
- Arthralgia [3]: 0 n (%)
- Asthenia [3]: 0 n (%)
- Hematologic [3]: 67 (52.8) n (%)
- Hyperbilirubinemia [3]: 3 (2.4) n (%)
- Hyperglycemia [3]: 1 (0.8) n (%)
- Hypertriglyceridemia [3]: 11 (8.7) n (%)
- Hypoalbuminemia [3]: 0 n (%)
- Hypocalcemia [3]: 0 n (%)
- Hypokalemia [3]: 1 (0.8) n (%)
- Hyponatremia [3]: 1 (0.8) n (%)
- Increased alanine aminotransferase [3]: 3 (2.4) n (%)
- Increased alkaline phosphatase [3]: 1 (0.8) n (%)
- Increased aspartate aminotransferase [3]: 2 (1.6) n (%)
- Increased creatine phosphokinase [3]: 10 (7.9) n (%)
- Increased γ-glutamyl transferase [3]: 5 (3.9) n (%)
- Leukopenia [3]: 21 (16.5) n (%)
- Myalgia [3]: 0 n (%)
- Neutropenia [3]: 11 (8.7) n (%)
- Nonhematologic [3]: 61 (48.0) n (%)
- Pain in extremity [3]: 1 (0.8) n (%)
- Proteinuria [3]: 5 (3.9) n (%)
- Pyrexia [3]: 5 (3.9) n (%)
- Rash [3]: 1 (0.8) n (%)
- Sinus tachycardia [3]: 0 n (%)
- Skin pigmentation [3]: 0 n (%)
- Thrombocytopenia [3]: 62 (48.8) n (%)
- Treatment-related adverse events [3]: 97 (76.4) n (%)
- Anemia (TRAE G 3/4, Total n=165): 38 (23.0) n (%)
- Arthralgia (TRAE G 3/4, Total n=165): 1 (0.6) n (%)
- Asthenia (TRAE G 3/4, Total n=165): 0 n (%)
- Hematologic (TRAE G 3/4, Total n=165): 93 (56.4) n (%)
- Hyperbilirubinemia (TRAE G 3/4, Total n=165): 4 (2.4) n (%)
- Hyperglycemia (TRAE G 3/4, Total n=165): 1 (0.6) n (%)
- Hypertriglyceridemia (TRAE G 3/4, Total n=165): 12 (7.3) n (%)
- Hypoalbuminemia (TRAE G 3/4, Total n=165): 0 n (%)
- Hypocalcemia (TRAE G 3/4, Total n=165): 0 n (%)
- Hypokalemia (TRAE G 3/4, Total n=165): 2 (1.2) n (%)
- Hyponatremia (TRAE G 3/4, Total n=165): 1 (0.6) n (%)
- Increased alanine aminotransferase (TRAE G 3/4, Total n=165): 4 (2.4) n (%)
- Increased alkaline phosphatase (TRAE G 3/4, Total n=165): 1 (0.6) n (%)
- Increased aspartate aminotransferase (TRAE G 3/4, Total n=165): 4 (2.4) n (%)
- Increased creatine phosphokinase (TRAE G 3/4, Total n=165): 11 (6.7) n (%)
- Increased γ-glutamyl transferase (TRAE G 3/4, Total n=165): 5 (3.0) n (%)
- Leukopenia (TRAE G 3/4, Total n=165): 34 (20.6) n (%)
- Myalgia (TRAE G 3/4, Total n=165): 0 n (%)
- Neutropenia (TRAE G 3/4, Total n=165): 19 (11.5) n (%)
- Nonhematologic (TRAE G 3/4, Total n=165): 81 (49.1) n (%)
- Pain in extremity (TRAE G 3/4, Total n=165): 2 (1.2) n (%)
- Proteinuria (TRAE G 3/4, Total n=165): 6 (3.6) n (%)
- Pyrexia (TRAE G 3/4, Total n=165): 9 (5.5) n (%)
- Rash (TRAE G 3/4, Total n=165): 1 (0.6) n (%)
- Sinus tachycardia (TRAE G 3/4, Total n=165): 0 n (%)
- Skin pigmentation (TRAE G 3/4, Total n=165): 0 n (%)
- Thrombocytopenia (TRAE G 3/4, Total n=165): 85 (51.5) n (%)
- Treatment-related adverse events (TRAE G 3/4, Total n=165): 131 (79.4%) n (%) and 131 (79.4) n (%)
- Anemia [4]: 24 (63.2) n (%)
- Arthralgia [4]: 8 (21.1) n (%)
- Asthenia [4]: 6 (15.8) n (%)
- Hematologic [4]: 36 (94.7) n (%)
- Hyperbilirubinemia [4]: 13 (34.2) n (%)
- Hyperglycemia [4]: 10 (26.3) n (%)
- Hypertriglyceridemia [4]: 23 (60.5) n (%)
- Hypoalbuminemia [4]: 6 (15.8) n (%)
- Hypocalcemia [4]: 19 (50.0) n (%)
- Hypokalemia [4]: 10 (26.3) n (%)
- Hyponatremia [4]: 10 (26.3) n (%)
- Increased alanine aminotransferase [4]: 9 (23.7) n (%)
- Increased alkaline phosphatase [4]: 5 (13.2) n (%)
- Increased aspartate aminotransferase [4]: 10 (26.3) n (%)
- Increased creatine phosphokinase [4]: 5 (13.2) n (%)
- Increased γ-glutamyl transferase [4]: 9 (23.7) n (%)
- Leukopenia [4]: 19 (50.0) n (%)
- Myalgia [4]: 8 (21.1) n (%)
- Neutropenia [4]: 8 (21.1) n (%)
- Nonhematologic [4]: 38 (100.0) n (%)
- Pain in extremity [4]: 7 (18.4) n (%)
- Proteinuria [4]: 19 (50.0) n (%)
- Pyrexia [4]: 9 (23.7) n (%)
- Rash [4]: 8 (21.1) n (%)
- Sinus tachycardia [4]: 7 (18.4) n (%)
- Skin pigmentation [4]: 31 (81.6) n (%)
- Thrombocytopenia [4]: 33 (86.8) n (%)
- Treatment-related adverse events [4]: 38 (100.0) n (%)
- Anemia [5]: 66 (52.0) n (%)
- Arthralgia [5]: 11 (8.7) n (%)
- Asthenia [5]: 12 (9.4) n (%)
- Hematologic [5]: 102 (80.3) n (%)
- Hyperbilirubinemia [5]: 56 (44.1) n (%)
- Hyperglycemia [5]: 33 (26.0) n (%)
- Hypertriglyceridemia [5]: 72 (56.7) n (%)
- Hypoalbuminemia [5]: 20 (15.7) n (%)
- Hypocalcemia [5]: 45 (35.4) n (%)
- Hypokalemia [5]: 32 (25.2) n (%)
- Hyponatremia [5]: 28 (22.0) n (%)
- Increased alanine aminotransferase [5]: 50 (39.4) n (%)
- Increased alkaline phosphatase [5]: 16 (12.6) n (%)
- Increased aspartate aminotransferase [5]: 49 (38.6) n (%)
- Increased creatine phosphokinase [5]: 43 (33.9) n (%)
- Increased γ-glutamyl transferase [5]: 38 (29.9) n (%)
- Leukopenia [5]: 37 (29.1) n (%)
- Myalgia [5]: 23 (18.1) n (%)
- Neutropenia [5]: 18 (14.2) n (%)
- Nonhematologic [5]: 127 (100.0) n (%)
- Pain in extremity [5]: 14 (11.0) n (%)
- Proteinuria [5]: 65 (51.2) n (%)
- Pyrexia [5]: 21 (16.5) n (%)
- Rash [5]: 19 (15.0) n (%)
- Sinus tachycardia [5]: 23 (18.1) n (%)
- Skin pigmentation [5]: 108 (85.0) n (%)
- Thrombocytopenia [5]: 93 (73.2) n (%)
- Treatment-related adverse events [5]: 127 (100.0) n (%)
- Anemia (TRAE any grades, Total n=165): 90 (54.5) n (%)
- Arthralgia (TRAE any grades, Total n=165): 19 (11.5) n (%)
- Asthenia (TRAE any grades, Total n=165): 18 (10.9) n (%)
